Experiment [1] is filed under the species Callithrix jacchus. Nature of the experiment: animal or person. The conditions noted are these: Plasma, po, 6 h, read-out: Inhibition.
Description: Inhibition of plasma renin activity in sodium depleted marmoset at 10 mg/kg, po after 6 hrs
For experiment [2], the species on record is Callithrix jacchus. Nature of the experiment: animal or person. The conditions noted are these: Plasma, po, 6 h, read-out: Inhibition. The source holds these as a separate data set.
Description: Inhibition of plasma renin activity in sodium depleted marmoset at 3 mg/kg, po after 6 hrs

Results on three compounds are retold here after ChEMBL document CHEMBL1148800, “Novel 2,7-dialkyl-substituted 5(S)-amino-4(S)-hydroxy-8-phenyl-octanecarboxamide transition state peptidomimetics are potent and orally active inhibitors of human renin” (J Med Chem, 2007).

As to `COCCCOc1cc(C[C@@H](C[C@H](N)[C@@H](O)C[C@@H](C)C(=O)NCC(C)(C)N2CCOCC2)C(C)C)ccc1OC`, the inhibition in vivo at 10 mg/kg in experiment [1] came out at 88%.

Take `COCCCOc1cc(C[C@@H](C[C@H](N)[C@@H](O)C[C@@H](C)C(=O)NCCN2CCSCC2)C(C)C)ccc1OC`: in experiment [2], the inhibition in vivo at 3 mg/kg was found to be 28%.

As for `COCCCOc1cc(C[C@@H](C[C@H](N)[C@@H](O)C[C@@H](C)C(=O)NCCCC(N)=O)C(C)C)ccc1OC`, the inhibition in vivo at 3 mg/kg in experiment [2] came to 95%.
